Reference: PubChem BioAssay (NCI)
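96-well plates; 48 h exposure; 5 concentrations. Endpoints by linear interpolation between flanking doses. Not reached: highest tested concentration assigned. The concentration for 50% growth inhibition is given as GI50. The concentration for full growth arrest is given as TGI.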

Columns and labels:
Experiment in all cases: inhibition of tumour cell growth, NCI panel, 48 h
TK-10 renal = tested on: TK-10 renal
SNB-19 CNS = tested on: SNB-19 CNS
EKVX NSCLC = tested on: EKVX NSCLC
MALME-3M melanoma = tested on: MALME-3M melanoma
SF-268 CNS = tested on: SF-268 CNS
OVCAR-8 ovarian = tested on: OVCAR-8 ovarian
SK-MEL-28 melanoma = tested on: SK-MEL-28 melanoma
OVCAR-5 ovarian = tested on: OVCAR-5 ovarian
CCRF-CEM leukemia = tested on: CCRF-CEM leukemia
SN12C renal = tested on: SN12C renal

SMILES	GI50 (TK-10 renal)	TGI (TK-10 renal)	GI50 (SNB-19 CNS)	TGI (SNB-19 CNS)	GI50 (EKVX NSCLC)	TGI (EKVX NSCLC)	GI50 (MALME-3M melanoma)	TGI (MALME-3M melanoma)	GI50 (SF-268 CNS)	TGI (SF-268 CNS)	GI50 (OVCAR-8 ovarian)	TGI (OVCAR-8 ovarian)	GI50 (SK-MEL-28 melanoma)	TGI (SK-MEL-28 melanoma)	GI50 (OVCAR-5 ovarian)	TGI (OVCAR-5 ovarian)	GI50 (CCRF-CEM leukemia)	TGI (CCRF-CEM leukemia)	TGI (SN12C renal)	GI50 (SN12C renal)
Cn1cccc1C1CC(=O)N(CCC[Se]C#N)C1=O (configuration not stated)	1.79 µM	4.06 µM	1.62 µM	3.08 µM	1.93 µM	4.46 µM	1.89 µM	4.12 µM	1.92 µM	3.92 µM	2.05 µM	4.44 µM	2.24 µM	5.96 µM	2.49 µM	6.51 µM	2.22 µM	7.66 µM		
COc1ccc(Br)c(CCCCC(=O)O)c1		> 100 µM		> 100 µM		> 100 µM						> 100 µM		> 100 µM				> 100 µM	> 100 µM	
O=C1/C(=C\c2ccccc2)CN(C(=O)c2ccccc2F)C/C1=C\c1ccccc1	2.33 µM	5.75 µM	1.85 µM	4.15 µM			2.24 µM	4.75 µM	2.8 µM	8.85 µM	2.67 µM	7.9 µM	2.08 µM	4.05 µM	2.16 µM	5.38 µM	1.52 µM	5.62 µM	3.48 µM	1.77 µM
COc1cc(-c2[nH]ncc2CCCC(=O)Nc2ccccc2[N+](=O)[O-])ccc1O		> 100 µM				> 100 µM		48.9 µM		> 100 µM		> 100 µM		> 100 µM		> 100 µM		> 100 µM	> 100 µM	
CC1(C)CCC(CN2CCN(c3ccc(C(=O)NS(=O)(=O)c4ccc(NCC5CCOCC5)c([N+](=O)[O-])c4)c(Oc4cnc5[nH]ccc5c4)c3)CC2)=C(c2ccc(Cl)cc2)C1	2.26 µM	6.34 µM	3.55 µM	23.8 µM			1.82 µM	3.64 µM	3.58 µM	17.8 µM	3.22 µM	16.5 µM	1.41 µM	6.79 µM	3.19 µM	11.6 µM	2.32 µM	7.29 µM	11.8 µM	2.82 µM
COc1ccc(C(=O)Nc2ccccc2)cc1[N+](=O)[O-]		> 100 µM		> 100 µM		> 100 µM		> 100 µM		> 100 µM		> 100 µM		> 100 µM				> 100 µM	> 100 µM	
Cc1nc(N=C(N)N)nc2ccc3ccccc3c12			0.942 µM	4.89 µM					0.505 µM	2.55 µM	0.811 µM	3.91 µM	1.53 µM	3.71 µM	2.29 µM	7.52 µM	1.76 µM	6.01 µM	3.84 µM	0.49 µM
CC1(C)CC[C@]2(C(=O)O)CCC3(C)C(=CCC4[C@@]5(C)CC[C@H](OC6OCC(O)C(O)C6OC6OC(CO)C(O)C(O)C6O)C(C)(C)C5CC[C@]43C)C2C1 (some centres not stated)		4.42 µM		3.7 µM		3.85 µM		3.54 µM		4.61 µM		4.12 µM		4.39 µM		6.93 µM			3.42 µM	
CC(=O)[CH-]C(=O)c1ccccc1.CC(=O)[CH-]C(=O)c1ccccc1.[O-]Cc1cccs1.[O-]Cc1cccs1.[Ti+4]			> 100 µM	> 100 µM	37.4 µM	> 100 µM	> 100 µM	> 100 µM	> 100 µM	> 100 µM	> 100 µM	> 100 µM	43.8 µM	> 100 µM	38.2 µM	> 100 µM			> 100 µM	36.8 µM
Clc1ccc(C2=NN(c3ccccc3)C3c4cc(Br)ccc4OCC23)cc1 (configuration not stated)		> 100 µM		> 100 µM		> 100 µM		> 100 µM		> 100 µM		> 100 µM		> 100 µM		> 100 µM		> 100 µM		
Nc1ccc(C(=O)O)c2[nH]c3ccccc3c(=O)c12		> 100 µM		> 100 µM				> 100 µM		> 100 µM		> 100 µM				> 100 µM		> 100 µM	> 100 µM	
CN(C)c1ccc(N=C(C#N)c2nc(N)nc(N3CCOCC3)n2)cc1	23 µM	63.6 µM	> 100 µM	> 100 µM	> 100 µM	> 100 µM	16.4 µM	49.4 µM			38.1 µM	> 100 µM	19.5 µM	48.4 µM	> 100 µM	> 100 µM	97.2 µM	> 100 µM	98.5 µM	28.8 µM
CCOC(=O)C12CN(C34CC5CC(CC(C5)C3)C4)CC(C(=O)OCC)(C1=O)C(c1ccccc1)OC2c1ccccc1 (configuration not stated)		> 100 µM		> 100 µM		> 100 µM		> 100 µM		> 100 µM		> 100 µM		> 100 µM		> 100 µM		> 100 µM		
N/C(=N\N=C=C1C(=O)Nc2ccc(F)cc21)NO		> 100 µM				> 100 µM		> 100 µM		> 100 µM		> 100 µM		> 100 µM				> 100 µM	> 100 µM	
Cc1cc(C)c2c(c1C)CN1CN2Cc2c(C)c(C)cc(C)c21		> 100 µM				> 100 µM		> 100 µM		> 100 µM		> 100 µM		> 100 µM		> 100 µM		> 100 µM	> 100 µM	
CC/C(=C(/CC)c1ccc(OP(=O)([O-])[O-])cc1)c1ccc(OP(=O)([O-])[O-])cc1.N.N.N.N.[Pt+4].[Pt+4]	4.73 µM	> 100 µM			7.77 µM	41.9 µM	2.13 µM	6.02 µM	1.73 µM	16.6 µM	4.71 µM	> 100 µM	2.07 µM	6.28 µM	6.98 µM	77.8 µM	0.898 µM	> 100 µM	45.7 µM	3.93 µM
COC(=O)[C@@]12C3=NO[C@]1(C(=O)OC)C(O[Si](C)(C)C(C)(C)C)C1OC(C)(C)OC1[C@@H]2[C@@H](OCc1ccccc1)CC3 (some centres not stated)		> 100 µM		> 100 µM		> 100 µM						> 100 µM		> 100 µM				> 100 µM	> 100 µM	
CCOC(=O)c1c(-c2ccccc2)[nH]c2ccccc2c1=O		> 100 µM		> 100 µM		> 100 µM		> 100 µM		> 100 µM		> 100 µM		> 100 µM		> 100 µM				
